Entries after “also recorded” stand apart in the source; their conditions may differ. Peptide text beside a SMILES is read from it. * marks the point of attachment. Cbz = O=C(OCc1ccccc1)*
Tests used:
[1] = test system: delta-E Torsin1a localization in Flp-In T-REx 293 cells expressing EGFP-delta-E Torsin1a; experiment: delta-E Torsin1a mis-localization assay (high-content imaging, % cells with EGFP puncta); format: cell-based, human; details: delta-E cell line; for percentage of cells with punctate EGFP-Torsin1a signal: MG132 10 μM, PBA 20 mM
Description: (§1) To limit variation in expression levels associated with random integration or transient expression, single copies of either WT or delta-E human TOR1A cDNAs with N-terminal EGFP fusions were inserted at the FRT site in Flp-In™ T-Rex™ 293 cells (Thermo Fisher Scientific #R780-07) via flippase recombinase-mediated cassette exchange according to the manufacturer's recommended protocols.
The cells were maintained at 37° C./5% CO2. All experiments were performed on cells with fewer than 5 passages.
Torsin1a expression was also controlled by tetracycline induction to avoid selective pressure modifying the cellular phenotypes. […] The mutant phenotype was measured as the percentage of cells with one or more EGFP puncta using automated high-content imaging analysis (see infra).
The image analysis algorithm was developed using the Cellomics ArrayScan V CompartmentAnalysisV2 protocol. Hoechst's nuclear staining (Ch1: excitation 350 nm; emission 461 nm) was used for focusing and for cell identification by nuclear size, shape, and intensity. […] Detected cells were gated according to nuclear area, length-to-width ratio, and perimeter-to-area ratio. For the purpose of analysis, cell bodies were defined by a radius of 10 μm from the outer edge of the defined nucleus. Overlapping cells were automatically segmented according to the Cellomics ArrayScanV CompartmentAnalysisV2 object segmentation feature. EGFP fluorescence (Ch2: excitation 488 nm; emission 509 nm) was used for puncta detection. […] Torsin1a puncta were identified using the spot detection feature of the Compartmental AnalysisV2 protocol. The percentage of cells containing one or more puncta was used as the primary metric in this assay.
(§2) In order to test this model directly, the delta-E Torsin1a cell line was treated with compounds targeting the eIF2-alpha signaling pathway (FIG. 2). […] The following day, serial drug dilutions were prepared at 2× final concentration in assay media containing 10 μg/mL tetracycline and 30 μL of the drug/tetracycline mixture was added to the appropriate wells, while control wells received 30 μL of assay media alone or assay media+10 μg/mL tetracycline (final tetracycline concentration for all wells except negative controls: 5 μg/mL). Cells were then incubated at 37° C./5% CO^2 for 48 hours and fixed, permeabilized, Hoechst stained, and imaged as described above. The range of the Torsin1a localization effect was normalized to the percentage of cells with puncta in vehicle-treated delta-E cell line as the maximum and that in WT cell line as the minimum (FIG. 2, panels c-h). Cell count and EGFP-Torsin1a expression were normalized to their respective values in the vehicle-treated delta-E cell line as the maximum. All dose response data are the average of 4 independent experiments per dose. Untreated control data used for normalization are the average of 24 independent experiments.

[2] = test system: WT Torsin1a localization in Flp-In T-REx 293 cells expressing EGFP-WT Torsin1a; experiment: Torsin1a localization assay in WT Torsin1a-expressing assay cell line; format: cell-based, human; details: WT cell line; MG132 10 μM, PBA 20 mM
Source text: To develop an assay capable of detecting conditions that correct a dystonia cellular phenotype, two human cell lines were generated that stably expressed EGFP-tagged human wild-type Torsin 1A, or delta-E Torsin1a, from a single cDNA copy integrated at a defined genomic site (FIG. 1, panel 1).
as §1, with “protocols. This system includes an inducible expression feature (TetON) that avoids selective pressure for potential toxic effects of chronic expression of mutant proteins (FIG. 1, panel 1). […]” for “protocols.”
This approach provides control over expression levels, avoiding the wide variation typically seen with random genomic integration or transient expression approaches. […] The mutant phenotype was measured as the percentage of cells with one or more EGFP puncta using automated high-content imaging analysis (see infra).
Development and validation of the high-content image analysis and assay performance under high-throughput screening conditions is presented in FIG. 9. […] Automated exposure times for each plate were determined by setting a target saturation of 25% in channel 1 in wells containing tetracycline-induced delta-E cells. Detected cells were gated according to nuclear area, length-to-width ratio, and perimeter-to-area ratio. […] EGFP fluorescence (Ch2: excitation 488 nm; emission 509 nm) was used for puncta detection. Automated exposure times for each plate were determined by setting a target saturation of 35% in channel 2 in wells containing induced delta-E cells. […]

[3] = test system: Flp-In T-REx 293 cells expressing delta-E Torsin1a; experiment: Cytotoxicity (cell count, cellular morphology) in the Torsin1a assay cell line; format: cell-based, human; details: at effective concentrations
Description: as §2
Efficacy is calculated as the magnitude of the pathology correction relative to the mutant Torsin1a pathology. For example an efficacy=−100% would be equivalent to the WT TorsinA phenotype, and 0% would be equivalent to the Mutant TorsinA phenotype. CCv2 refers to the dose response Curve Class annotation, and AC refers to Active Concentration.

[4] = test system: homozygous DYT1 (delta-E Torsin1a) knock-in mice; experiment: Perinatal survival of homozygous DYT1 knock-in mice after in utero exposure; format: in vivo, mouse
Description: The findings above support a role for the eIF2-alpha signaling pathway in normalizing in vitro cellular phenotypes related to the DYT1 genotype. Next, the effect of targeting eIF2-alpha signaling on the deleterious consequences of the DYT1 TorsinA mutation was determined in vivo. Etiological mouse models of DYT1 dystonia have not had robust dystonic phenotypes. (Tanabe, L. M., et al., (2012) PloS One 7, e32245; Camargos, S. et al., (2008) Lancet. Neurol. 7, 207-15; Seibler, P. et al. (2008) Lancet. Neurol. 7, 380-1.) Nonetheless, another deleterious genotype-dependent effect of the mutation on the animal-neonatal lethality of homozygous delGAG knock-in mice—facilitated interrogation of the impact of eIF2-alpha targeting in vivo (FIG. 4a). (Seibler, P. et al. (2008) Lancet. Neurol. 7, 380-1; Goodchild, R. E., et al, (2005) Neuron 48, 923-32.)
Pairs of heterozygous delta-E Torsin1a knock-in breeders (courtesy of Dr. W. Dauer, University of Michigan) were randomly assigned to vehicle or salubrinal treatment groups. Starting 10 days after breeding cages were established, each female mouse was given a daily subcutaneous injection of vehicle or salubrinal at approximately 6 p.m. Cages were checked for new pups three times per day: morning (˜8 a.m.), early afternoon (˜2 p.m.), and during injections (˜6 p.m.). In order to minimize stress and the possibility of litter abandonment, mice with newborn pups were not given injections. Newborn pups were identified by marking limbs with a permanent laboratory marker, and tail samples were taken for genotyping at P0. At approximately P0.5, cages were checked again, and the status of each pup was recorded. If pups were first observed at the 8 am check, the 2 pm check was considered P0.5. If pups were first observed at the 2 pm or 6 pm checks, an additional check was performed at approximately midnight, and considered P0.5. Mortality was also tracked the following day, after which time identifying marks were predominately washed off or obscured by fur. […]

SMILES	percentage of cells with punctate EGFP-Torsin1a signal [1]	percentage of cells with punctate EGFP-Torsin1a signal [2]	EC50 ([1]; Homo sapiens, Flp-In-T-REx-293, 48 hours, dose response, read-out: EC50 of normalization of delta-E Torsin1a localization) [µM]	effect on delta-E Torsin1a localization (in words) ([1]; dose response)	efficacy on delta-E Torsin1a localization ([1]; normalized to vehicle delta-E (max) and WT (min)) [%]	toxicity (cell count, cellular morphology; in words) [3]	perinatal survival / mortality of homozygous delta-E/delta-E pups ([4]; 3.3 mg/kg subcutaneous daily to pregnant dams from about embryonic day 10 through delivery, vs vehicle)	mortality of wildtype or heterozygote pups ([4]; 3.3 mg/kg subcutaneous daily to pregnant dams, treatment vs control)	homozygous delta-E Torsin1a pups that survived through the second postnatal day ([4]; in utero exposure, no vehicle-treated homozygous pups survived the first postnatal day)
CC(C)C[C@@H](C=O)NC(=O)[C@H](CC(C)C)NC(=O)[C@H](CC(C)C)NC(=O)OCc1ccccc1 [MG132] (Cbz-Leu-Leu-Leu-aldehyde)	significantly increased	significantly increased							
O=C(O)CCCc1ccccc1 [PBA, phenylbutyric acid]	ameliorated the burden of cells with punctate pathology	ameliorated the burden of cells with punctate pathology							
O=C(/C=C/c1ccccc1)NC(NC(=S)Nc1cccc2cccnc12)C(Cl)(Cl)Cl (centres unmarked) [Salubrinal]			2.12	robust dose-dependent normalization	66.4	without modifying steady-state EGFP-Torsin1a levels or significant toxicity	dramatically reduced the mortality; also recorded: improves perinatal survival	no mortality differences	two

Source: patent publication US11285142B2, “Compositions and methods for identifying and treating dystonia disorders” (DUKE UNIVERSITY, priority 2015, dated 2022)
